This note sets out measurements from article PMC2639753 (Bioorganic & medicinal chemistry, 2008).

One data set concerns HIV-1 (IIIB). In words: Antiviral activity against HIV-1. Conditions: MT-2 cells.
In another data set the target is HIV-1 RT (Human immunodeficiency virus type 1 group M subtype B, UniProt P03366). In words: In vitro steady-state RT inhibition assay. Format: biochemical.

SMILES strings stand for the structures.

Turning to `C#CCOc1ccc(OC)cc1CCNC(=S)Nc1ccc(Br)cn1` [6b, N-(5-Bromo-2-pyridinyl)-N′-[2-(5-methoxy-2-propargyloxyphenyl)ethyl]-thiourea], in the data set on HIV-1 (IIIB), the “activity relative to HI-236 in cell culture” value is “equal to HI-236”. As for `C#CCCOc1ccc(OC)cc1CCNC(=S)Nc1ccc(Br)cn1` [6c, N-(5-Bromo-2-pyridinyl)-N′-{2-[2-(3-butynyl-1-oxy)-5-methoxyphenyl]ethyl}-thiourea], the “fold increase in activity compared to HI-236 in the RT assay” value at HIV-1 RT was 7 fold. Take `C#CCCCOc1ccc(OC)cc1CCNC(=S)Nc1ccc(Br)cn1` [6d, N-(5-Bromo-2-pyridinyl)-N′-{2-[5-methoxy-2-(4-pentynyl-1-oxy)phenyl]ethyl}-thiourea]: at HIV-1 RT, the “activity relative to HI-236 in the RT assay” value is “as active as HI-236”.

`C#CCOCCOc1ccc(OC)cc1CCNC(=S)Nc1ccc(Br)cn1` [6i]: in the data set on HIV-1 (IIIB), the “T.I (in vitro therapeutic index CC50/EC50)” value stood at 100. `COC(=O)COc1ccc(OC)cc1CCNC(=S)Nc1ccc(Br)cn1` [6k, N-(5-Bromo-2-pyridinyl)-N′-[2-(2-methoxycarbonylmethyloxy-5-methoxyphenyl)ethyl]-thiourea] yielded a 50% inhibitory concentration (IC50) against HIV-1 RT of 100 nM. The “fold improvement in RT assay over cell culture” value at HIV-1 RT (RT IC50 versus cell-culture EC50) is on record as 120 fold. For `COc1ccc(OCCCC#N)c(CCNC(=S)Nc2ccc(Br)cn2)c1` [6m], the “activity relative to HI-236 in cell culture” value in the data set with HIV-1 (IIIB) is “equal to HI-236”. Turning to `COc1ccc(OCCCO)c(CCNC(=S)Nc2ccc(Br)cn2)c1` [6o], the “activity relative to HI-236 in the RT assay” value at HIV-1 RT was “as active as HI-236”.

What is called IC50 is the concentration that gives 50% inhibition. High values mean weaker potency in that assay, low ones greater potency in that assay.
